Patent publication US7759101B2, “Ginsenoside glycosidases hydrolyzing ginsenoside sugar moieties and uses thereof” (priority 2000, dated 2010)

Key:
[1] = system: ginsenoside glycosidase III from ginseng plant; experiment: Hydrolysis of Rd with fraction 37 (ginsenoside glycosidase III) from ginseng plant; assay type: biochemical; settings: Fraction 37; substrate 0.5%; 50° C., pH 5.0, 18 hours
Description: 200 g of fresh ginseng root was cut into pieces and added to 600 ml of 0.02 M acetate buffer pH 5. Supernatant was obtained by filtration after the mixture stand at 40° C. for 2 hours. To the supernatant (NH4)2SO4 was added gradually until 70% saturation and the mixture stand overnight at 4° C. Then protein pellets were collected by centrifugation and redissolved in 15 ml of distilled water. The solution was dialyzed against 0.02 M Tris-HCl pH 7.4. Insolubles were removed by centrifugation and the volume of the supernatant was adjusted to 20 ml.
5 ml of the enzyme solution was subjected to a DEAE-Cellulose DE-25 column (Whatman, 1.4×6.7 cm). The column was eluted with a KCl gradient (0.06, 0.12, 0.18 and 0.24 M) in 0.02 M Tris-HCl pH 7.4. After elution, each fraction was tested for the activity of hydrolyzing ginsenosides. […] Fraction 52 can also hydrolyze the glucosidic bond at the twentieth carbon atom of Rb and Rc to give ginsenoside F2.

[2] = system: bacterial ginsenoside glycosidases; experiment: Hydrolysis of Rd with ginsenoside glycosidases from bacteria; assay type: biochemical, Bacillus sp. JF; settings: 0.5% Rd in acetate buffer containing 20% ethanol, 70° C., 16 hours
Description: Thermophilic and aerobic Bacillus sp. JF (Fengxie Jin et al., J. Gen. Appl. Microbiol., 36, 415-434, 1990) was cultured with aeration and stirring in a medium containing 0.5% by weight of ginseng extracts, 1% by weight of wheat bran extracts and 0.3% tryptone with a pH of 7.2 at 60° C. for 36 hours. Cells were removed by centrifugation and 3000 ml of 95% ethanol was added to 1000 ml of the cell-free supernatant. The solution was allowed to stand at 4° C. overnight and then centrifuged to collect the pellets. The enzyme protein pellets were dissolved in 50 ml of 0.01M acetate buffer pH 5. Insoluble materials were removed by centrifugation and a crude enzyme solution was obtained.
10 ml of the enzyme solution was allowed to react with 10 ml of 0.5% Rd in acetate buffer containing 20% ethanol at 70° C. for 16 hours. […] The enzymes can also hydrolyze β-(1→2)-glucoside of Rg3 to give Rh2.

[3] = system: ginsenoside glycosidase I; experiment: Hydrolysis of ginsenosides with Fraction 36 (ginsenoside glycosidase I); assay type: biochemical, Aspergillus niger; settings: pH 5.0, 30° C.
Description: 10 ml of the enzyme solution obtained in 1.1 was subjected to a DEAE-Cellulose DE-52 column (Pharamcia, 1.5×6.7 cm) to absorb the enzyme protein. The column was then eluted with a NaCl gradient (0.06, 0.12, 0.18, 0.24, 0.3, 0.4, 0.5 and 0.6M).
Fractions 36 and 54 from the DEAE-Cellulose column appeared as one dot on a SDS-polyacrylamide gel, representing the purified enzymes.
Fraction 36 which was eluted with 0.12 M NaCl from the DEAE-Cellulose column was lyophilized and appeared as a single dot with a molecular weight of 51,000 Daltons when running on a SDS-polyacrylamide gel.
To observe the differences between the ginsenoside glycosidases of the invention and known exo-cellulases, the ginsenoside glycosidases of the invention were compared with cellulose β-glucosidase (E.C. 3.2.1.21) in two reactions with 0.5% ginsenosides Rb1 or Rd as substrate.

[4] = system: ginsenoside glycosidases from Tremella; experiment: Hydrolysis of Rb1 with ginsenoside glycosidases from Tremella; assay type: biochemical, Tremella sp. FFCCDL-12 g; settings: 1% Rb1 in acetate buffer containing 20% ethanol, 40° C., 20 hours
Description: Tremella sp. FFCCDL-12 g (available from Food Fermentation Culture Collection of Dalian Institute of Light Industry) was cultured on a solid medium containing 125 g of ginseng powder, 374 g of wheat bran and 500 ml of water for 5 to 7 days. Then 2500 ml of 0.01 M acetate buffer pH 5.0 was added to the solid medium to stand for 2 hours. Insolubles were removed by centrifugation and approximately 2000 ml liquid was obtained. (NH4)2SO4 powder was added to the liquid with stirring to 70% saturation. The solution was stored at 4° C. overnight and centrifuged to collect the pellets. The pellets were resuspended and the suspension was dialyzed against 0.01M acetate buffer pH 5. Then the solution was diluted in 0.01 M acetate buffer to a volume of 150 ml. Impurities were removed by centrifugation, and crude enzyme solution was obtained.
10 ml of the enzyme solution was allowed to react with 10 ml of 1% Rb1 in acetate buffer containing 20% ethanol at 40° C. for 20 hours. […] The optimal reaction temperature for the enzymes is 50° C. and the optimal pH is pH 5.5.

[5] = system: Enzymes from Animal Liver; experiment: Hydrolysis of Rb1 with enzymes from animal liver; assay type: biochemical, bovine; settings: 1% Rb1 solution, pH 5, 20% ethanol, 40° C., 20 hours
Description: 100 g of bovine liver was minced and added to 300 ml of 0.01 M acetate buffer pH 5 for extraction under room temperature for two hours. The mixture was centrifuged and (NH4)2SO4 was added to the supernatant to 70% saturation to precipitate the enzymes. The mixture was stored at 4° C. overnight. Precipitates were collected by centrifugation and dialyzed against 0.01 M acetate buffer pH 5. Impurities were removed and 15 ml of enzyme solution was obtained. 10 ml of the enzyme solution was allowed to react with 10 ml of 1% Rb1 solution (in 0.01 M acetate buffer pH 5 containing 20% ethanol) at 40° C. for 20 hours.

[6] = system: Enzymes from Plant Seeds—Almond; experiment: Hydrolysis of Rb1 with enzymes from almond; assay type: biochemical; settings: 1% Rb1 solution, pH 5, 20% ethanol, 50° C., 14 hours
Description: 100 g of almond was ground and added to 300 ml of 0.01 M acetate buffer pH 5 for extraction under room temperature for two hours. The mixture was centrifuged. (NH4)2SO4 was added to the supernatant to 60% saturation to precipitate the enzymes. The mixture was stored at 4° C. overnight. Precipitates were collected by centrifugation and dialyzed against 0.01 M acetate buffer pH 5. Impurities were removed and 30 ml of enzyme solution was obtained. 10 ml of the enzyme solution was allowed to react with 10 ml of 1% Rb1 solution (in 0.01 M acetate buffer pH 5 containing 20% ethanol) at 50° C. for 14 hours.

[7] = Fraction 36, substrates Rb1, Rb2, Rc, Rd 0.5%, Rg3, F2, Rh2, C—K, Rg2 0.05%
[8] = Table 8, ginsenoside glycosidase I, substrate 0.5%, 18 hours

Row | Compound | Percentage of C—K in the reaction product [1] [%] | Percentage of Rd in the reaction product [1] [%] | Rd converted to ginsenoside F2 [2] [%] | Percentage of C—K in the reaction product [3, 7] [%] | Percentage of F2 in the reaction product [3, 7] [%] | Percentage of aglycone in the reaction product [3, 7] [%] | Percentage of C—K in the reaction product [3, 8] [%] | Percentage of F2 in the reaction product [3, 8] [%] | Percentage of aglycone in the reaction product [3, 8] [%] | C-K in the product mixture [4] [%] | F2 in the product mixture [4] [%] | Rd in the product mixture [4] [%] | Percentage of Rd in the reaction product [3, 7] [%] | Percentage of Rh2 in the reaction product [3, 7] [%] | Percentage of Rd in the reaction product [3, 8] [%] | Percentage of Rh2 in the reaction product [3, 8] [%] | Rb1 converted to ginsenosides with lower sugar contents [5] [%] | Rb1 converted to ginsenosides with lower sugar contents [6] [%]
1 | CC(C)=CCC[C@](C)(O[C@@H]1O[C@H](CO)[C@@H](O)[C@H](O)[C@H]1O)[C@H]1CC[C@]2(C)[C@@H]1[C@H](O)C[C@@H]1[C@@]3(C)CC[C@H](O[C@@H]4O[C@H](CO)[C@@H](O)[C@H](O)[C@H]4O[C@@H]4O[C@H](CO)[C@@H](O)[C@H](O)[C@H]4O)C(C)(C)[C@@H]3CC[C@]12C [Rd, ginsenoside Rd] | 55 | 45 | 60 | 25 | 50 | 5 | 25 | 50 | 5 | – | – | – | – | – | – | – | – | –
2 | CC(C)=CCC[C@](C)(O[C@@H]1O[C@H](CO[C@@H]2O[C@H](CO)[C@@H](O)[C@H](O)[C@H]2O)[C@@H](O)[C@H](O)[C@H]1O)[C@H]1CC[C@]2(C)[C@@H]1[C@H](O)C[C@@H]1[C@@]3(C)CC[C@H](O[C@@H]4O[C@H](CO)[C@@H](O)[C@H](O)[C@H]4O[C@@H]4O[C@H](CO)[C@@H](O)[C@H](O)[C@H]4O)C(C)(C)[C@@H]3CC[C@]12C [Rb1, ginsenoside Rb1] | – | – | – | 49 | 38 | 2 | 49 | 38 | 2 | 35 | 40 | 25 | 8 | 1 | 8 | 1 | 50 | 40
